Measured values published in publication PMC8191290, “Substrate specificities and reaction kinetics of the yeast oligosaccharyltransferase isoforms” (The Journal of Biological Chemistry, 2021).
The star is where a group is joined. 5‑TAMRA = CN(C)c1ccc2c(-c3ccc(C(=O)*)cc3C(=O)[O-])c3ccc(N(C)C)cc3[o+]c2c1

What was measured:
OST3 complex [1] = target: T1, OST3 complex (Saccharomyces cerevisiae, UniProt P39007); test: In vitro glycosylation assay, kinetic parameters for synthetic LLOs, OST3 complex; assay type: biochemical; details: OST3 complex, under the tested conditions
T1 construct: were purified separately from strains expressing only one type of complex; made in house; host or cells: Saccharomyces cerevisiae, BY4742-derived strain ost6::LEU2MX6 OST4-1D4::kanMX6 YEp352-OST3
Description: Synthetic LLO substrates all have two GlcNAcs as the sugar moiety, followed by pyrophosphate and lipid moieties (−R) of variable stereochemistry and length, denoted by the carbon chain length. C10, (S)-citronellyl; C15, farnesyl; C20, (S)-citronellylneryl; C25, (S)-citronellylfarnesyl; C90, represents the natural yeast dolichol lipid tail structure where n = 15. Figure modified from Ramirez et al. 2017 ([42]). B, quantification of kinetic parameters for the synthetic LLOs. Reactions were performed with 0.1 μM purified OST3 complex, 25 μM peptide TAMRA-YANATS, and varying concentrations of the different synthetic LLOs. Glycopeptide product was measured by UPLC and turnover rates were determined from the linear initial phase of the reaction. The mean of three reactions is shown and the data were fitted by nonlinear regression according to the Michaelis–Menten formula (R^2 = 0.9842 (LLO C15), 0.9685 (LLO C20), 0.9261 (LLO C25)) using Prism. Error bars indicate standard deviations from the mean (n = 3).
(§1) Concentrations of reactive LLO analogs were determined by in vitro glycosylation (see below) by titrating varying amounts of LLO against a known amount of fluorescently labeled peptide. Concentrations of nonreactive LLO analogs were determined by in vitro glycosylation by titrating varying amounts of nonreactive LLO while using known amounts of both fluorescently labeled peptide and active LLO analog.
(§2) Reactions were performed in a total volume of 10 μl containing the specified amount of TAMRA-labeled peptide, synthetic LLO analog, 10 mM MnCl2, and purified OST after size-exclusion chromatography in purification buffer (50 mM Hepes, pH 7.5, 150 mM NaCl, 1 mM MgCl2, 1 mM MnCl2, 10% (v/v) glycerol, 0.03% (w/v) DDM, and 0.006% (w/v) CHS). The concentration of OST was calculated using the molecular weight of 280 kDa. The reaction mixture was preincubated at 30 °C for 5 min before adding the peptide to start the reaction that proceeded at 30 °C. Time points were taken such that the reaction was in the linear phase. […]
(§3) Samples were analyzed by reverse-phase chromatography using a UPLC Dionex UltiMate 3000 with an Accucore 150-C18 100 × 2.1 mm 2.6 μm column (Thermo Fisher Scientific). One microliter sample (2 pmol of peptide) was injected and measured by isocratic elution using a certain proportion of ACN (15% ACN for peptide TAMRA-DANYTK; 20% ACN for peptide TAMRA-YANATS) in 10 mM KPO4, pH 8.0 buffer so that the glycopeptide and peptide are fully separated and elute within 3 min at a constant flow rate of 0.7 ml/min, with a column temperature of 45 °C. The peptide and glycopeptide were detected through TAMRA fluorescence (excitation wavelength: 546 nm; emission wavelength: 579 nm).
The UPLC profiles were analyzed by integrating the peaks corresponding to the glycopeptide and peptide using Chromeleon 7 (Dionex) and calculating the amount of glycopeptide formed using the following equation, as previously described ([43]): [GP]=PeakareaGP/PeakareaP+PeakareaGP×[P]
[GP] is the concentration of glycopeptide, Peak areaGP/P is the area under the curves measured for the glycopeptide or peptide, respectively, and [P] is the concentration of peptide at the start of the reaction. […] Unless specified otherwise, turnover rates were determined from the initial rates of reaction by taking into account the enzyme concentration in the reaction. […]

OST3 complex [2] = target: T1, OST3 complex; test: Peptide competition assay (unlabeled peptide vs TAMRA-DANYTK); assay type: biochemical; details: 0.4 μM purified OST3 complex, 150 μM LLO C20, 25 μM TAMRA-DANYTK, 25 μM unlabeled competitor peptide, 30 min, relative to control without competitor
Description: Figure 2 In vitro glycosylation assay for OST activity and peptide sequence preferences.A, schematic representation of the in vitro reaction setup for yeast OST activity. The peptide substrate containing the glycosylation sequon N-X-(S/T) is labeled with the TAMRA fluorophore at the N-terminus. Incubation with OST, synthetic LLO, and a divalent metal ion (Mn^2+preferred) results in the transfer of the sugar moiety (two GlcNAcs, blue squares) from the LLO to the fluorescently labeled peptide, yielding a glycopeptide product. […] The glycopeptide elutes earlier than the peptide and amounts of glycopeptide are quantified at different reaction time points by peak integration. C, quantification of kinetic parameters for synthetic peptide TAMRA-DANYTK. […] Glycopeptide product was measured by UPLC and turnover rates were determined by linear regression of the initial phase of the reaction and taking into account the enzyme concentration. […] E, quantification of kinetic parameters for synthetic peptide TAMRA-YANATS. […] Turnover rates were determined as in C. […]
(§4) Samples were analyzed by reverse-phase chromatography using a UPLC Dionex UltiMate 3000 with an Accucore 150-C18 100 × 2.1 mm 2.6 μm column (Thermo Fisher Scientific). […]

yeast OST3 complex = test: Inhibition of OST activity by nonhydrolyzable LLO analogs; assay type: biochemical, Saccharomyces cerevisiae; details: for IC50: 0.1 μM purified OST3 complex, 25 μM TAMRA-YANATS, 50 μM LLO C20, inhibitor 2.5–2000 μM (Ia) or 2.5–3000 μM (Ib), 30 °C, read-out: IC50 (apparent)
Description: Figure 4 Inhibition of yeast OST activity by synthetic nonhydrolyzable LLOs in vitro.A, structure of synthetic nonhydrolyzable LLOs. Synthetic nonreactive LLOs have two GlcNAcs as the sugar moiety, followed by pyrophosphonate and lipid moieties of variable stereochemistry and length, denoted by the carbon chain length. Ia, GlcNAc2-(OH)CPP-(S)-citronellylneryl (C20); Ib, GlcNAc2-CPP-(S)-citronellylfarnesyl (C25). Note that Ia is a hydroxy-phosphonate (with an additional OH group, single diastereomer, R/S configuration unassigned), while Ib is a phosphonate without an additional hydroxyl group. Figure modified from Ramirez et al. 2017 ([42]). B, quantification of inhibition by nonhydrolyzable LLOs shown in A. Reactions were performed with 0.1 μM purified OST3 complex, 25 μM peptide TAMRA-YANATS, 50 μM LLO C20, and varying concentrations of the different synthetic inhibitory LLOs. Glycopeptide product was measured by UPLC and turnover rates were determined from the linear initial phase of the reaction. % inhibition was determined relative to a control reaction without nonhydrolyzable LLOs. […]
as §1
as §2, with “kDa.” for “kDa. The reaction mixture was preincubated at 30 °C for 5 min before adding the peptide to start the reaction that proceeded at 30 °C. Time points were taken such that the reaction was in the linear phase.”
as §4

TbStt3A = details: reported for TbStt3A, compound 34d; ref [42]; cited from earlier work
Description: The nonreactive LLO analogs Ia and Ib had the same disaccharide and lipid structures as the reactive LLO substrates LLO C20 and LLO C25, respectively. However, they differed from their reactive counterpar ...

OST3 complex [3] = target: T1, OST3 complex; test: Turnover of synthetic TAMRA-labeled peptides; assay type: biochemical; details: 0.5 µM OST3 complex, 20 µM peptide
Description: TAMRA-labeled peptides with 5-TAMRA at the N-terminus and an amide group at the C-terminus were synthesized by WatsonBio Sciences. Unlabeled peptides (Table S1) were synthesized by Genscript Corp. and were designed so that the asparagine of the glycosylation sequon was in the middle (except for Peptide 8). Lyophilized peptides were dissolved in dimethyl sulfoxide (DMSO), unless specified otherwise, to a 3 mM stock solution and further diluted in ddH2O for reactions.
Reactions were performed in a total volume of 10 μl containing the specified amount of TAMRA-labeled peptide, synthetic LLO analog, 10 mM MnCl2, and purified OST after size-exclusion chromatography in purification buffer (50 mM Hepes, pH 7.5, 150 mM NaCl, 1 mM MgCl2, 1 mM MnCl2, 10% (v/v) glycerol, 0.03% (w/v) DDM, and 0.006% (w/v) CHS). The concentration of OST was calculated using the molecular weight of 280 kDa. The reaction mixture was preincubated at 30 °C for 5 min before adding the peptide to start the reaction that proceeded at 30 °C. Time points were taken such that the reaction was in the linear phase. At each time point, 1 μl reaction mixture was taken and the reaction was stopped by dilution in stop solution (0.1% FA in 10% ACN, 10 mM KPO4 pH 8.0) such that the final peptide concentration was 2 μM.
as §3
The UPLC profiles were analyzed by integrating the peaks corresponding to the glycopeptide and peptide using Chromeleon 7 (Dionex) and calculating the amount of glycopeptide formed using the following equation, as previously described ([43]): [GP]=PeakareaGP/PeakareaP+PeakareaGP×[P] […]
Supp. Table 2. Turnover of synthetic TAMRA-labeled peptides
Peptide Glycopeptide Turnover after 5 min Relative turnover […]
TAMRA, tetramethylrhodamine
Turnover of TAMRA-labeled peptides after 5 min was determined using 0.5 µM OST3 complex, 20 µM indicated peptide and 150 µM LLO C20. Relative turnover compared to TAMRA-DANYTK is given by defining TAMRA-DANYTK turnover as 100 %.

[4] = target: Ost3p-containing yeast oligosaccharyltransferase complex (S. cerevisiae) (UniProt P41543)
[5] = target: Ost6p-containing yeast oligosaccharyltransferase complex (S. cerevisiae) (UniProt P41543)

CC(=O)NC1C(OC2C(CO)OC(OP(=O)(O)OP(=O)(O)OCCC(C)CCC=C(C)C)C(NC(C)=O)C2O)OC(CO)C(O)C1O (stereo not drawn) [LLO C10]
activity as LLO substrate (OST3 complex [1]): no detectable activity

ADTYANATSDVL [Peptide 5]
% inhibition of TAMRA-DANYTK glycopeptide formation (OST3 complex [2]): 50%

GlcNAc2-(OH)CPP-(S)-citronellylneryl [Ia]
IC50 (yeast OST3 complex): 44 µM | relative inhibitory potency, in words (yeast OST3 complex; OST3 complex): more potent inhibitor of the yeast OST3 complex than Ib

GlcNAc2-CPP-(S)-citronellylfarnesyl [Ib]
IC50 (TbStt3A): 26 ± 3 µM | IC50 (yeast OST3 complex): 198 µM

TAMRA-ADTYANATSDVL [TAMRA-labeled Peptide 5]
Turnover after 5 min (OST3 complex [3]; 150 µM LLO C20): 10% | Glycopeptide detected (OST3 complex [3]; 150 µM LLO C20, 5 min): Yes | Relative turnover (OST3 complex [3]; TAMRA-DANYTK turnover defined as 100 %, 5 min, 150 µM LLO C20): 167%

B1: TAMRA-DANYTK-NH2 (peptide)
peptide: {5‑TAMRA}-DANYTK-NH2
SMILES: C[C@H](NC(=O)[C@H](CC(=O)O)NC(=O)c1ccc(-c2c3ccc(N(C)C)cc3[o+]c3cc(N(C)C)ccc23)c(C(=O)[O-])c1)C(=O)N[C@@H](CC(N)=O)C(=O)N[C@@H](Cc1ccc(O)cc1)C(=O)N[C@H](C(=O)N[C@@H](CCCCN)C(N)=O)[C@@H](C)O
apparent KM of the peptide in the in vitro glycosylation assay (Michaelis-Menten fit; about 1 μM OST3 complex, 150 μM LLO C20, 10-400 μM peptide, 30 °C) [4]: 201 µM

B2: TAMRA-YANATS (peptide)
peptide: {5‑TAMRA}-YANATS-NH2
SMILES: C[C@H](NC(=O)[C@H](Cc1ccc(O)cc1)NC(=O)c1ccc(-c2c3ccc(N(C)C)cc3[o+]c3cc(N(C)C)ccc23)c(C(=O)[O-])c1)C(=O)N[C@@H](CC(N)=O)C(=O)N[C@@H](C)C(=O)N[C@H](C(=O)N[C@@H](CO)C(N)=O)[C@@H](C)O
apparent KM of the peptide in the in vitro glycosylation assay (Michaelis-Menten fit; 0.1 μM OST6 complex, 100 μM LLO C20, varying peptide, 30 °C) [5]: 44.8 µM | apparent KM of the peptide in the in vitro glycosylation assay (Michaelis-Menten fit; 0.1 μM OST3 complex, 100 μM LLO C20, 10-500 μM peptide, 30 °C) [4]: 55.6 µM
